Counter-ions that a name gives are not always drawn.

One data set relates to reserpine-treated mice. The data set can be described thus: mouse sugar water preference test (reserpine depression model). It is filed as in vivo, Kunming mice. As to the method: Experimental drug, clomipramine (CLI), sigma company, batch number: C7291, 10 mg/ml (10% DMSO); reserpine (Res), sigma company, batch number: 83580, 1 mg/ml (10% DMSO);
SPF adult male Kunming mice, 20-30 g, Laboratory Animal Center of Lanzhou University, animal certificate number: SCXK (Gan) 2018-0002, reared in separate cages, temperature 22±1° C., humidity […], 12 h/12 h light and dark cycle controlled by dynamic light (light-on time 8:000 h, light-off time 20:000 h, light intensity≈100 lux), animals could eat and move freely.
(§1) Statistical analysis, the experimental data were analyzed by SPSS 19.0 statistical software, and all data were expressed as Means±SEM.

In data set [1] the test system is reserpine depression model mice. Kind of data set: forced swimming test in mice (reserpine depression model). Format: in vivo, Kunming mice. As to the method: Experimental Drug, Animal, Grouping and Administration are Same as Sugar Water Preference Experiment Method.
Preparation of depression animal models, acute intraperitoneal injection of 6 mg/kg Res can cause a continuous decrease in monoamine neurotransmitters in the brain for 1 week, and depression-like behaviors last for 72 hours, it is often utilized for the preparation of depression models (Huang et al., 2004).
Forced swimming experiment process, the forced swimming experiment is an experiment in which animals are placed in an unavoidable stressful environment to detect the despair state of animal behavior (Porsolt et al., 1978). Male Kunming mice were selected and randomly divided into groups. Conduct in a quiet and enclosed behavioral observation room, with red lights for indoor lighting (25 lux). The experiment is divided into two stages, the first stage: adaptation experiment, 1 day before the test, 9:00-12:00 h, put the animals into the forced swimming test equipment (plexiglass drum: diameter 20 cm, height 25 cm, water depth 12 cm, water temperature 21-25° C., the upper side CCD camera is connected to the computer to record) after 15 minutes of adaptation, take it out, dry the hair with a towel and put it back into the cage. The second stage: testing experiment, animals in each group were put into the forced swimming bucket for 5 minutes at the same time period, and the behavioral activities during the testing period were tracked and recorded by digital cameras and then analyzed. Immobility time: The animal floats on the water surface, with no movement of the limbs or slight movement of the hind limbs to keep the head above the water surface. Evaluate depression like behavior by detecting the despair state of animals based on their immobility time.
as §1

Data set [2] has as its system lipopolysaccharide-induced depression mouse model. The data set can be described thus: lipopolysaccharide-induced depression mouse model (open field, forced swimming test, body weight). It is filed as in vivo, ICR mice. As to the method:
Positive drug: fluoxetine hydrochloride capsule (specification 20 mg), take the content in a mortar, add 40 ml of 0.5% CMC-Na solution while grinding, to a suspended state, set EP tube for use; test drug (compound 5): dissolve into 5, 10, and 20 mg/ml solutions in distilled water, respectively, and put them in EP tubes for later use; modeling drug (LPS): take a frozen lipopolysaccharide PBS solution (1.2 mg: 1.2 ml), and after thawing Use a pipette to take 1 ml into the EP tube, replace with a new pipette tip and pipette 9 ml of normal saline into the EP tube, shake well for use.
Except for the first group (blank control group), other groups of animals were intraperitoneally injected with LPS 2 h before the last administration on the 7th day to the mice in the model group, the positive drug group, and the low, middle and high dose groups of the test drug.
The first group was the blank control group, which was given 0.5% CMC-Na 0.2 ml/20 g by gavage; the second group was the model group, which was given 0.5% CMC-Na by gavage; the third group was the positive drug group, which was given by gavage Flunarizine hydrochloride (sibilin) 1 mg/kg; the fourth group was the low-dose group of the test drug, which was given 100 mg/kg of compound 5 by gavage; the fifth group was the medium-dose group of the test drug, which was given 200 mg/kg by gavage. kg of compound 5; the sixth group was the test drug high-dose group, and 400 mg/kg of compound 5 was administered by gavage. The drug was administered for one week, and the second to sixth groups were intraperitoneally injected with 1 mg/kg (0.2 ml/20 g) of LPS on the seventh day to establish a model.
On the 7th day, before the last administration and modeling, the effect of the drug on the spontaneous activity of the mice should be investigated, and it is excluded that the drug increases the spontaneous activity of the mice and interferes with the immobility time in the forced swimming experiment. The total migration distance of each mouse in the open field (50×50×50 cm) within 5 min was calculated using the open field experimental instrument and related computer software. Before the data collection, each mouse was given 5 min to familiarize with the open field environment, after each mouse was tested, its excrement was removed and the odor was eliminated with an alcohol spray bottle.
Because the air temperature is low, it is appropriate to control the water temperature by adding hot water to the cylinder.
In the spontaneous activity, the behavioral index selects the total migration distance of mice in the open field within 5 minutes,
by tracking the movement trajectory of mice through monitoring devices, and using computer software, the total distance of movement can be directly obtained; in the FST experiment, the mice were placed in a into a transparent cylinder filled with warm water (about 25° C.) for 6 minutes, the mice will experience struggling, swimming and floating behaviors, the time when the mice stop struggling to float on the water surface is identified as a state of despair caused by depression, by using monitoring equipment and computer software to statistically analyze the state of mice after 4 minutes, the total “Immobility time” can be directly obtained.

Setting [3] is: Res 6 mg/kg + compound 5 56 mg/kg i.p.
The mark [4] stands for this setting: after Res 6 mg/kg i.p., CLI 50, Pro 25, A1P1 24 and 25, compound 5 56 mg/kg i.p.

For the compound `CC(C)c1cccc(C(C)C)c1OC(=O)CC1(CN(C)C)CCCCC1` [Compound 5, 2,6-diisopropylphenyl 2-(1-((dimethylamino)methyl)cyclohexyl)acetate hydrochloride], the “antidepressant effect (sugar water preference test)” value in the data set on reserpine-treated mice (setting [3]) is “significant antidepressant effect”. Also, in the data set with reserpine-treated mice (setting [4]), the “change of preference for sugar water compared with the Res+DMSO group” value is recorded as “rose significantly”. For the same compound, in the data set on reserpine-treated mice (after Res 6 mg/kg i.p., CLI 50, Pro 25, A1P1 24 and 25, compound 5 56 mg/kg i.p., Means±SEM, Res + DMSO 0.642 ± 0.036, DMSO 0.901 ± 0.026), the “Sugar water preference (sugar water drinking amount/total drinking amount)” value is 0.894 ± 0.028. Also, in data set [1] (setting [3]), the “antidepressant effect (forced swimming test)” value is “significant antidepressant effect”; the “forced immobility time compared with the Res+A1P1 group” value is “shortened to a certain extent, but there was no significant difference”; the “forced immobility time compared with the Res+Pro group” value was “shortened and there was a significant difference”. The “change of forced swimming immobility time compared with the Res+DMSO group” value in data set [1] (setting [4]) is “slightly shortened”. Moreover, in data set [1] (after Res 6 mg/kg i.p., CLI 50, Pro 25, A1P1 24 and 25, compound 5 56 mg/kg i.p., 5 min test, Means±SEM, Res + DMSO 169.82 ± 11.22, DMSO 106.72 ± 16.49), the “Forced swimming immobility time” value is 116.29 ± 22.23 s. Besides, in data set [2] (compound 5 100, 200, 400 mg/kg and positive drug, gavage for one week), the “effect on body weight of mice” value is reported as “no significant effect”. Moreover, in data set [2] (compound 5 100, 200, 400 mg/kg and positive drug, gavage for one week, no statistical difference found), the “alleviation of depressive behavior caused by LPS” value is “certain alleviation effect”. Also, the “spontaneous activity: total migration distance in open field within 5 minutes” value in data set [2] (reference blank group, day 7 before last administration, all dose groups, p>0.05) is “no significant effect”. The FST immobility time result in data set [2] (reference model group, compound 5 100, 200, 400 mg/kg and positive drug, gavage for one week, 4 h after LPS) was “not significantly different (p>0.05)”.

(Values after US20250082760A1 (priority 2020, published 2025).)
